Assay results: paper PMC9440176, “Novel benzylidene benzofuranone analogues as potential anticancer agents: design, synthesis and in vitro evaluation based on CDK2 inhibition assays” (3 Biotech, 2022)

Experiments:
[1] = system: HCT 116 cell lines; assay: Cell cycle analysis (PI, FACS); type: cell-based, Human; settings: standard at 25 μM
Protocol: The cell cycle analysis was followed where 1 × 10^6 cells were seeded and cultured for 24 h in a 6-well plate containing 2 ml of the media. Cells were then treated with desired concentrations of the given samples that were prepared in media and further incubated for another 24 h. Cells were then harvested and centrifuged at 2000 rpm for 5 min at room temperature and the supernatant was discarded carefully retaining the cell pellet. Cell pellet was then washed by resuspending in 2 ml of 1XPBS. The washing was repeated another time under the same conditions. Further, the supernatant was discarded retaining the pellet. Cells were then fixed by resuspending in 300 µL of Sheath fluid followed by the addition of 1 ml of chilled 70% ethanol drop by drop gently with continuous shaking and one more mL of the same at once. The cells were then stored at 4 °C overnight. Post fixing, the cells were centrifuged at 2000 rpm for 5 min washed twice with 2 ml of cold 1XPBS and suspended in 450 µL of sheath fluid containing 0.05 mg/ml PI (Propidium iodide), 0.05 mg/ml RNase A and incubated for 15 min in the dark (Kasibhatla et al. [2006]).The percentage of cells in various stages of cell cycle both in the treated as well as un-treated populations was determined using FACS Caliber (BD Biosciences, San Jose, CA).

[2] = system: normal epithelial kidney cells (Vero); assay: MTT cytotoxicity assay on Vero; type: cell-based; settings: Chlorocebus sabaeus, Vero, 24 h, read-out: Inhibition of cell proliferation, IC50, Vero
Protocol: (§1) The monolayer cell culture was trypsinized and the cell count was adjusted to 5.0 × 10^5 cells/ml using respective media containing 10% FBS. To each well of the 96-well microtiter plate, 100 µL of the diluted cell suspension (50,000cells/well) was added. After 24 h, when a partial monolayer was formed, the supernatant was flicked off, the monolayer was then washed once again with the medium and 100 µL of different test concentrations of test drugs were added on to the partial monolayer in microtiter plates. The plates were then incubated at 37 °C for 24 h in 5% CO2 atmosphere. After incubation, the test solutions in the wells were discarded and 100 µL of MTT (5 mg/10 ml of MTT in PBS) was added to each well. The plates were then incubated for 4 h at 37 °C in 5% CO2 atmosphere. The supernatant was then removed and 100 µL of DMSO was added and the plates were gently shaken to solubilize the formed formazan. The absorbance was measured using a microtiter plate reader at a wavelength of 590 nm. The percentage growth inhibition was thus calculated using the following formula and the concentration of the test drug required to inhibit the cell growth by 50% (IC50) values is generated from the dose–response curves for each one of the cell lines (Meerloo et al. [2011]).
(§2) The test compounds were screened for their in vitro cytotoxicity by MTT assay against two cancer cell lines, namely MCF-7, HCT-116 and normal epithelial kidney cells (Vero). Doxorubicin was used as a reference standard.

[3] = system: HCT-116 cells; assay: Apoptosis detection by propidium iodide / Annexin V-FITC; type: cell-based, Human; set-up: FACS analysis of apoptosis detection, Viable cells / FACS analysis of apoptosis detection, Early apoptotic / FACS analysis of apoptosis detection, Late apoptotic / FACS analysis of apoptosis detection, Necrotic: unit not given here; settings: 20 μM
Protocol: The day before induction of apoptosis, 1 × 10^6cells per well were plated on a 6-well plate using respective media with 10% FBS and 1% PenStrep, incubated overnight at 37 °C at 5% CO2.The media was replaced with test solutions of different concentrations in the media containing 10% FBS. The treated cells were incubated for 24 h at normal culture conditions. The cells were further harvested and the well contents were completely transferred into the sterile FACS tubes. The cell contents were centrifuged at 2000 rpm for 5 min and the supernatant was discarded. After centrifugation, the cells were washed twice with cold PBS and then resuspended in 1 ml of binding buffer at a concentration of 1× 10^6 cells/ml. […] of the cell suspension (5× 10^5 cells) were then transferred into a fresh FACS tube (Vermes et al. [1995]). Further, cells were gently mixed with […] of propidium iodide and […] of Annexin V before being incubated for 20 minutes at room temperature in the dark. The cells were immediately analyzed by flow cytometer within a duration of an hour.

[4] = system: MCF-7; assay: MTT cytotoxicity assay on MCF-7; type: cell-based; settings: Homo sapiens, MCF7, 24 h, read-out: Inhibition of cell proliferation, IC50, MCF-7
Protocol: as §1, §2

[5] = system: HCT 116; assay: MTT cytotoxicity assay on HCT 116; type: cell-based, Human; settings: Homo sapiens, HCT-116, 24 h, read-out: Inhibition of cell proliferation, IC50, HCT 116
Protocol: as §1, §2

[6] = system: MCF-7 and HCT 116 cell lines; assay: MTT cytotoxicity, IC50 range stated over MCF-7 and HCT 116; type: cell-based; settings: range over both cell lines; read-out: Cytotoxic activity IC50 range against MCF 7 and HCT 116
Protocol: as §1, with “[2011]). […]” for “[2011]).”

[7] = target: CDK2/Cyclin A (Homo sapiens, UniProt P24941); assay: CDK2/cyclin A inhibitory assay, Z'-LYTE FRET kinase assay; type: biochemical; settings: concentration of 100 micro molar; 1000 ng/ml kinase, 1000 µM ATP
Source text: Z’-LYTE® technology involves homogeneous assay design based on FRET and is a universal platform for both screening as well as profiling protein kinases. The assay uses a peptide substrate labeled with two different fluorophores, coumarin donor and fluorescein acceptor on each end. These two fluorophores make up a FRET pair, which allows the transfer of energy when both are present on the same molecule. The initial kinase reaction transfers the ϒ-phosphate of ATP to a tyrosine or serine/threonine residue on the substrate. In a secondary reaction, referred to as the development reaction, a site-specific protease recognizes and cleaves only non-phosphorylated peptide, while phosphorylated substrate remains uncleaved. […] Upon excitation of Coumarin at 400 nm, the FRET signal is measured as a ratio between the Coumarin donor emission at 445–460 nm and the fluorescein acceptor emission at 520–535 nm(Lebakken et al. [2007]).
Initial ten-fold and two-fold dilutions of Kinase and ATP concentrations were used to choose the optimal Kinase and ATP concentration based on the % Phosphorylation.
The assay was carried out according to the kit instructions (384 well format). Briefly, 5X kinase buffer [250 mM HEPES (pH 7.5), 50 mM MgCl2, 5 mM EGTA, 0.05% BRIJ-35] was diluted to 1X using distilled water. The phosphor peptide positive control (Z’-LYTE® Tyr 4 phospho-peptide) and the non-phosphorylated negative control (Z’-LYTE® Tyr 4 peptide) were then diluted to 1:500 with 1× kinase buffer to 2 μM. […] Working development solution was then made by diluting 12 μL of the provided stock solution with 388 μL of the provided development buffer. Aliquots (20 μL) of each peptide mixture were then added to the wells of a Corning 3914 solid white microplate in replicates of 8. The development reaction was initiated by the addition of 10 μL of working development-solution to all the wells. Further, the plates were allowed to incubate at room temperature for 60 min. Reactions were then stopped by the addition of 10 μL of stop solution (Jia et al. [2008]).
Reactions were quantitated using a Tecan Robotic Microplate Reader. Reader control, blank subtraction, ratio metric calculations and finally graph plotting were carried out using Gen5™ Data Analysis Software.
The CDK2/Cyclin A assay was carried out as per the manufacturer’s instruction using suitable controls and standard.
The inhibitory assay was carried out using the stock of 10 mM in DMSO. Samples were further serially diluted to obtain concentrations of 100 μM. The concentrations were chosen based on the IC50 values obtained in the MTT assay. A total of 23 analogues were selected for the assay based on their antiproliferative activity. Further, selected compounds were screened and tested against the target CDK2/Cyclin A, and their % phosphorylation and % inhibition were recorded.

[8] = DPPH. free radical scavenging assay
Protocol: DPPH. assay was performed using 96-well plate by serial dilution method. The dilution of methanolic stock solution of the test compounds and standard anti-oxidants was carried out to obtain concentration in the range of 3.9–1000 µM. Quercetin and ascorbic acid were used as standards. To a 100 μL of this solution, 100 μL of 200 µM DPPH^. in methanolic solution was added. The experiment was done in triplicate and the plate was then incubated for 30 min in the dark and later the absorbance was measured at 517 nm using Elisa reader. The percentage DPPH^. Scavenging was calculated using the formula, (Control Absorbance–Test Absorbance)*100/(Control Absorbance). The anti-oxidant activity of the test compounds was expressed in terms of concentration required for 50 percentage inhibition (IC50) (Collins [2005]).

[9] = ABTS.+ radical scavenging assay
Protocol: The assay was performed in a 96-well plate by serial dilution method. A 2 mM ABTS^.+ working solution was prepared in a phosphate buffer (Zheleva-Dimitrova et al [2010]).To this, 200 μL of aqueous potassium per sulfate (70 mM) solution was added and the solution was incubated for 24 h in the dark at room temperature to develop a blue-green color. To 30 μL of ABTS^.+ working solution, 50 μL of different concentrations (3.9–1000 μM) of the test sample solution and 170 μL of phosphate buffer (pH-7.4) were added in a well. The plate was then incubated in the dark at room temperature for 10 min. Then absorbance was measured at 690 nm using Elisa reader. Quercetin and ascorbic acid were used as standards. The percentage scavenging of ABTS^.+ was calculated using the formula, (Control Absorbance–Test Absorbance)*100/(Control Absorbance) and the anti-oxidant activity was expressed in terms of IC50 value.

| SMILES | percentage cell population G2/M phase [1] | percentage cell population GO/G1 phase [1] | percentage cell population S phase [1] | IC50 [2] | FACS analysis of apoptosis detection, Early apoptotic [3] | FACS analysis of apoptosis detection, Late apoptotic [3] | FACS analysis of apoptosis detection, Necrotic [3] | FACS analysis of apoptosis detection, Viable cells [3] | apoptotic index [3] | IC50 [4] | IC50 [5] | IC50 [6] | % inhibition on CDK2/cyclin A [7] | IC50 [8] | IC50 [9] |
| --- | --- | --- | --- | --- | --- | --- | --- | --- | --- | --- | --- | --- | --- | --- | --- |
| COc1cc2c(c(OC)c1OC)-c1ccc(OC)c(=O)cc1[C@@H](NC(C)=O)CC2 [Colchicine, reference compound] | 43.78 | 47.39 | 8.61 | – | – | – | – | – | – | – | – | – | – | – | – |
| COc1cccc2c1C(=O)c1c(O)c3c(c(O)c1C2=O)C[C@@](O)(C(=O)CO)C[C@@H]3O[C@H]1C[C@H](N)[C@H](O)[C@H](C)O1 [Doxorubicin, reference compound] | – | – | – | 165 µM | 4.44 | 26.61 | 19.86 | 49.09 | 26.61% | 0.68 µM | 8.11 µM | – | – | – | – |
| COc1cc(OC)c(C2=CCN(C)CC2)c2c1C(=O)/C(=C/c1ccccc1Br)O2 [NMA2] | – | – | – | 154 µM | – | – | – | – | – | 26.8 µM | 34.9 µM | 21.2 to 44 µM | 35.350% | 83.2 ± 6.42 µM | 66.5 ± 2.02 µM |
